Laboratory results reported in article PMC12518693, “Potent Fluorescent Probe for Target‐Engagement Studies of Allosteric Pyruvate Kinase Modulators” (Angewandte Chemie (International Ed. in English), 2025).

Legend:
PKLNluc = PKLNluc (Homo sapiens, UniProt P30613); experiment: NanoBRET with recombinant PKLNluc; conditions: tracer IV 100 nM, 450/550 nm, ± mitapivat
Protocol: Due to the low quantum yield of SBD‐containing IV (Table S1), we optimized the plate reader settings for the NanoBRET assay to maximize the signal‐to‐background (S/B) ratio. The fluorescence excitation spectrum of tracer IV overlapped with the emission band of PKLNluc (Figure 5a), prompting the screening of wavelength pairs within 400–600 nm.
The donor/acceptor wavelength pairs were recorded at 450/470 nm, 550/510 nm, 450/530 nm, 450/550 nm, 450/610 nm, 450/630 nm and 400/470 nm respectively. For each sample well, BRET ratios were calculated using the following formula:
BRET ratio mBU= AcceptorSDonorS-AcceptorNTDonorNT
Where AcceptorS is the luminescence intensity (FI) of the sample well at 550 nm, DonorS is the FI of the sample well at 450 nm, and AcceptorNT and DonorNT are the FI of the no-tracer control at 550 nm and 450 nm respectively.

PKL = PKL (Homo sapiens, UniProt P30613); experiment: HepG2 PKM2 KO cell lysate PKL activity assay; conditions: HepG2 PKM2 KO cells, 48 h, mean ± SE n=3
Protocol: These predominantly express PKL.
HepG2 PKM2 KO cells (Synthego) were plated in 6 well plates at cell densities of 2 x 10^5 cells/well and incubated for 24 h at 37 °C and 5% CO2. Compounds were added to the cells in different concentrations (0.1, 1, 10 µM) and the cells were further incubated for 48 h. The control cells received DMSO as vehicle.
Cells were washed with PBS, lysed on ice with 200 µL/well PK assay buffer. […] Pyruvate kinase (PK) activity of the cell lysates (10 µg total protein) was analyzed by using the PK assay kit from abcam (ab83432) according to manufacturer´s instructions. The PKL activity in the cell lysates treated with the compounds was expressed as a percentage of the PK activity in the vehicle.

HEK293 cells = experiment: HEK293 cell viability assay (CellTiter-Glo 2.0); format: cell-based; conditions: 2 h
Protocol: Finally, the effects of tracer IV on cell viability were assessed. HEK293 cells were treated with IV at concentrations of 0, 0.01, 0.1, 1, and 10 µM for 2 h, after which cells were lysed, and intracellular ATP levels were quantified using the CellTiter‐Glo 2.0 assay (Figure S8a).
Figure S8. Cell viability assay (CellTiter-Glo 2.0) of HEK293 cells treated with different concentrations of tracer IV. (A) Cell viability assay performed on HEK293 cells incubated for 2 h with different concentrations of tracer IV or DMSO (0 nM IV) in FluoroBrite™ DMEM complete medium. Results are reported as relative luminescence values (mean ± SE, n=4, One Way ANOVA followed by Dunnett´s multiple comparison test). […] Results are reported as relative luminescence values (mean ± SE, n=4, One Way ANOVA followed by Dunnett´s multiple comparison test). […] Results are reported as relative luminescence values (mean ± SE, n=4, One Way ANOVA followed by Dunnett´s multiple comparison test).
The effect of tracer IV on cell viability was assessed using CellTiter-Glo 2.0 assay (Promega). This is a method that determines the number of viable cells by quantifying the amount of ATP in the metabolically active cells. […] Mono-oxygenation of luciferin catalyzed by luciferase in the presence of ATP will generate light which could be measured by luminometer. […]

Chain of PKL (P30613 1-543 isoform P30613-2): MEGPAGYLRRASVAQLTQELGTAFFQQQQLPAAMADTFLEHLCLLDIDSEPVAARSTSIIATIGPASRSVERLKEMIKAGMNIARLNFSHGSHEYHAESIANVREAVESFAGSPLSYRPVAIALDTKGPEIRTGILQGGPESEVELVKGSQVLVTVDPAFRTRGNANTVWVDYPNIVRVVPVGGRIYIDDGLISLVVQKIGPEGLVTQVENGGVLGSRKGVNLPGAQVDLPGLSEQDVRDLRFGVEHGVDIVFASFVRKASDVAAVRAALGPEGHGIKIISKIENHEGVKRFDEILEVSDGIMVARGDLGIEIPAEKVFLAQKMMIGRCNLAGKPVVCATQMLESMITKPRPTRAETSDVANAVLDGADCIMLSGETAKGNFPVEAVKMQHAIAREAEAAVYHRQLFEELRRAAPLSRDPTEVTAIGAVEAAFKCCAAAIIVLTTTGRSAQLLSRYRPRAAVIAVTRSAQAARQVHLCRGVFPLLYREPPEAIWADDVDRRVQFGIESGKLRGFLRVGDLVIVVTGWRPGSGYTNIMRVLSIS
Chain of PKLNluc (P30613 1-543 isoform P30613-2): as above

- BRET assay window (PKLNluc): 39 mBU
- PKL activities (% of vehicle) 0.1 µM (PKL; 0.1 µM): 108 ± 3 % of vehicle
- PKL activities (% of vehicle) 1 µM (PKL; 1 µM): 146 ± 4 % of vehicle
- PKL activities (% of vehicle) 10 µM (PKL; 10 µM): 242 ± 7 % of vehicle
SMILES: CN(C)c1ccc(S(=O)(=O)c2ccc3c(=O)n(Cc4cc[nH]n4)ncc3c2)c2nonc12 [Compound IV, 2-((1H-Pyrazol-3-yl)methyl)-6-((7-(dimethylamino)benzo[c][1,2,5]oxadiazol-4-yl)sulfonyl)phthalazin-1(2H)-one]
- effect on cell viability (intracellular ATP) (HEK293 cells; HEK293, 0.01-10 µM): does not affect cell viability
- effect on viability of transfected cells (HEK293 cells; HEK293 transfected with PKLNluc or Nluc plasmids, up to highest tested concentration): did not affect the viability
